Laboratory results taken from patent US9586999B2, “Methods and compositions related to improving properties of pharmacological agents targeting nervous system” (University of Utah Research Foundation, priority 2006, dated 2017).
Entries after “also recorded” stand apart in the source; their conditions may differ.

What was measured:
sound-induced seizures = test: Frings audiogenic seizure-susceptible mouse model of reflex epilepsy; format: in vivo; conditions: i.p., 4 mg/kg for time course, dose-response 1 h after dosing
Description: (§1) The ability of individual modified peptides to prevent seizures induced by sound in the AGS-susceptible Frings mouse model can be assessed at the time of peak effect (White et al., 1992). For this test, individual mice are placed into a plexiglass cylinder (diameter, 15 cm; height, 18 cm) fitted with an audio transducer (Model AS-ZC; FET Research and Development, Salt Lake City, Utah), and exposed to a sound stimulus of 110 decibels (11 KHz) delivered for 20 seconds. Sound-induced seizures are characterized by wild running followed by loss of righting reflex with forelimb and hindlimb tonic extension. Mice not displaying hindlimb tonic extension are considered protected.
The two modified galanin analogs (GAL-BBB1 and GAL-BBB2) were administered i.p. to a group of Frings audiogenic seizure susceptible mice in a dose of 4 mg/kg. At various times after administration (i.e., 15, 30, 60, 120, and 240 min) each mouse was placed into a cylindrical test chamber fitted with an audio transducer and challenged with a high-intensity sound stimulus (110 dB, 11 KHz for 20 sec). Animals not displaying tonic hind-limb extension were considered protected. […] In a subsequent study, anticonvulsant efficacy was quantitated at the time to peak effect (i.e., 1 h) in a dose-response study.
as §1, with “analogs” for “peptides”
At various times after administration (i.e., 15, 30, 60, 120, and 240 min) each mouse was placed into a cylindrical test chamber fitted with an audio transducer and challenged with a high-intensity sound stimulus (110 dB, 11 KHz for 20 sec).

corneal kindling = test: Mouse corneal kindling acquisition; format: in vivo
Procedure: CF#1 mice were randomized to receive either vehicle (0.9% saline) or NAX-5055. Mice in the NAX-5055 group received two doses of NAX-5055 twelve (12 h) and 1 h prior to their first kindling stimulation. One hour (1 h) prior to each subsequent stimulation, mice in the NAX-5055 treated group received another dose of NAX-5055 (4 mg/kg, i.p.). Mice were stimulated twice daily for 16 days. Results are expressed as the mean seizure score per stimulation. As noted above, the results for the NAX-5055 treated mice segregated into two populations; i.e., sensitive (green line) and insensitive (blue line).
Mice treated with NAX-5055 (see legend to Figure X for experimental details) segregated into two treatment groups; i.e., NAX-5055 sensitive and NAX-5055 insensitive. Results are expressed as the number of stimulations required to reach a particular seizure score+/−S.E.M.; i.e., 1 to 5. […] One Way ANOVA, p<0.0209; post hoc analysis: saline vs. NAX-5055 insensitive, p>0.05; NAX-5055 sensitive vs. NAX-5055 insensitive, p<0.05.
Daily electrical stimulation via the cornea results in a stable kindled state within 15-20 days. This is an ideal model to initially assess the ability of selected galanin analogs to prevent kindling acquisition because the amount of peptide required is much lower than what is required for a rat kindling study. Those compounds found to be effective in preventing the acquisition of kindling are subsequently evaluated in a more traditional rat kindling model; i.e., amygdala kindled rat. For the proposed studies two groups of mice (n=8 mice per group) are randomized to receive either vehicle or peptide prior to each kindling stimulation. […] At the time to peak effect (obtained from the 6 Hz study), they are stimulated via corneal electrodes with a subconvulsive current (50 Hz, 3 mA, for 3.0 sec) and observed for the presence or absence of seizure activity. Seizure activity is scored according to the criteria established by Racine et al., (1972). Animals receive two stimulations per day until they display their first Stage 5 behavioral seizure and then once daily until they display stable secondarily generalized seizures (5 consecutive Stage 4-5 seizures). Peptide treatment continues in the experimental group until the point that the control mice become fully kindled. At this point, mice in both groups are permitted a one-week stimulus and treatment-free week. On the 8th day, mice in both groups are stimulated in the absence of peptide or vehicle and their seizure score recorded.
The ability of the blood-brain-barrier penetrant galanin-based neuropeptide NAX-5055 to prevent the development of corneal kindling was studied in CF#1 mice. […] Following stimulation seizure activity was scored on a scale of 0-5 as established by Racine (1972).

[1] = 4 mg/kg i.p. twice daily, NAX-5055 sensitive group

Sar-Trp-Thr-Leu-Asn-Ser-Ala-Gly-Tyr-Leu-Leu-Gly-Pro-Lys-Lys-(Lys-palm)-Lys-NH2 [NAX 5055]
anticonvulsant effect against sound-induced seizures (sound-induced seizures; 4 mg/kg): effective; also recorded: time-dependent anticonvulsant activity; also recorded: dose-dependent protection | anticonvulsant effect against sound-induced seizures (sound-induced seizures; listed as GAL-BBB2, 4 mg/kg): dose-dependent effect | anticonvulsant effect against sound-induced seizures (sound-induced seizures; listed as Gal BBB-2, 4 mg/kg): time (inset) and dose-dependent protection | kindling acquisition (corneal kindling; 4 mg/kg i.p.): can delay kindling acquisition | Stage 5 seizures (corneal kindling; [1]): none of the mice in the NAX-5055 sensitive group reached Stage 5 seizures | more stimulations to reach Stage 2 and Stage 3 seizures (corneal kindling; [1]): 35-40% | stimulations required to reach a Stage 1 seizure (corneal kindling; [1]): two times more stimulations
